The text below walks through data of patent US20200330446A1, “COMPOSITIONS AND METHODS OF TREATING SKIN FIBROTIC DISORDERS” (AIVIVA BIOPHARMA, INC., priority 2015, published 2020).

Each structure is given as a SMILES string. Entries after “also recorded” stand apart in the source; their conditions may differ.

Assay [1] relates to TGF-β1 mRNA. Description: TGF-β1 mRNA expression by qRT-PCR in Yucatan pig skin wound sites. The settings on record: minipig; compared to unwounded normal skin. It counts as in vivo, Yucatan minipigs. From the text: (§1) In this experiment, multiple full-thickness excision wounds were made to the dorsum of Yucatan minipigs, and the wound sites were allowed to re-epithelialized adequately. At four weeks post-wound, the wound sites had normal to pink vascularity and had pliability. Epidermal hyperplasia was observed, as expected for regenerative responses in the full-thickness wounds.
(§2) On Day 28 post-wound, a dose (e.g., 1%) of axitinib, nintedanib, riociguat, sorafenib, sunitinib, and/or lenvatinib was administered into the dermal tissue at or around the wound sites, once every two weeks on two occasions. One wound site was left untreated as the control for each pig. Please note that the particular parameters in this example are only for illustration. One skilled in the art would appreciate that the dosages, administration methods, treatment regimen, and the administration sites may be varied to achieve similar results.
In addition, total mRNA was isolated from skin biopsies of the treated wound sites and the untreated unwounded sites of the pigs. The mRNA samples were used to prepare cDNA and analyzed via qRT-PCR. The TGF-β1 expression levels were assessed using beta actin as a reference gene.
In general terms: Quantitative PCR measures a nucleic acid by following its amplification.

For assay [2], the system named is TGF-β1 mRNA. Description: TGF-β1 mRNA expression by qRT-PCR in rabbit ear wound sites. It counts as in vivo, New Zealand White rabbits. To be noted: for Rabbit TGFB1 mRNA Expression Fold by Treatment Relative to Untreated Wounded (mean ± SD): rabbit ear wound sites, Treated (each drug), N 5 or 6, intradermal; for mean TGFb1 mRNA level after intradermal treatment, in words: rabbit ear, compared with the vehicle-treated wound. The procedure: (§3) Eight wounds were created on the ventral surface of the ears of each of New Zealand White rabbits using skin punch biopsies, and then the wounds were allowed to heal for approximately 2 weeks.
(§4) A dose (e.g., 1%) of axitinib, nintedanib, riociguat, sorafenib, sunitinib, and/or lenvatinib was administered into the dermal tissue, once every two weeks on two occasions. Again, the specific doses, treatment methods and schedules are for illustration only. One skilled in the art would appreciate that variations and modifications are possible to achieve similar results.
(§5) On Day 42 post wound, the rabbits were sacrificed and dermal tissues were collected for qualitative and quantitative evaluation using hematoxylin and eosin and Mason's Trichrome staining. In addition, TGF-β1 mRNA expression levels were measured using qRT-PCR.

Assay [3] concerns rabbit ear hypertrophic scar. Description: Rabbit ear hypertrophic scar model, histologic evaluation (H&E, Mason's Trichrome). The format is in vivo, New Zealand White rabbits. The settings on record: intradermal, Day 42 post wound, compared with untreated and vehicle-treated wound; for fibrosis of treated wound, in words / neovascularization of treated wound, in words: once every two weeks on two occasions.
Source text: In rabbits, wounds are created down to the bare cartilage on the ventral surface of the ear using a dermal biopsy punch. […] By both appearance and histological analysis, these scars resemble human hypertrophic scars. In this established model, it was shown that reduced TGF-β expression results in reduced scarring, which is consistent with the current understanding of the pathogenesis of excessive scarring/dermal fibrosis. […] Thus, this rabbit model was also used to assess the compounds of the invention.
as §3, §4, §5
Histologic slides for hematoxylin and eosin stainings were prepared from the wound sites. Tissues were evaluated qualitatively for inflammation, neovascularization, granulation tissue, degrees of re-epithelialization, and degrees of scarring (avascular collagen).

Assay [4] relates to full-thickness excision wounds on the dorsum of Yucatan minipigs. The assay can be described thus: Yucatan minipig full-thickness excision wound model, histologic evaluation (H&E, Mason's Trichrome). To be noted: for Fibroplasia; dermis, Average Scores / Neovascularization; dermis, Average Scores: minipig wound sites after two doses, Day 59 post wound, average of individual scores, scale 1 minimal to 5 severe. It counts as in vivo.
Source text: Porcine skin resembles human skin in many aspects. Both species have a relatively thick epidermis, distinct rete pegs, dermal papillae, and dense elastic fibers in the dermis. Furthermore, unlike rodents and rabbits, porcine skin is adherent to the subcutaneous structures, similar to human skin. Because of these anatomical similarities and other parallelisms in wound healing, porcine models have emerged as important foundations for the study of pathophysiology and potential treatment paradigms for abnormal wound healing. It has also been observed in porcine full-thickness wound healing in Yucatan Minipigs that the spatial and temporal expressions of TGF-β1, PDGF and VEGF were similar to the patterns for the growth factors described above. Therefore, the full-thickness excision models in Yucatan minipigs are the models for human wound healing studies.
as §1, §2
On Day 59 post wound, the minipigs were sacrificed and dermal tissues were collected for qualitative and quantitative evaluation using hematoxylin and eosin, and Mason's Trichrome staining. Dermal fibroplasia was characterized by increased numbers of fibroblasts in the dermis suspended in variable amounts of collagen in wounds.

Setting [5] is: minipig, two biweekly treatments, histopathology relative to the untreated wound.

On to `COC(=O)c1ccc2c(c1)NC(=O)/C2=C(\Nc1ccc(N(C)C(=O)CN2CCN(C)CC2)cc1)c1ccccc1` [nintedanib], for which the “TGF-β1 mRNA expression level at treated wounds, in words” value (from here on “TGF-β1 mRNA expression level”) in the assay on TGF-β1 mRNA [1] is recorded as “most effective”. Moreover, in the assay on TGF-β1 mRNA [2], the “Rabbit TGFB1 mRNA Expression Fold by Treatment Relative to Untreated Wounded (mean ± SD)” value is recorded as 0.73 ± 0.13 Fold and the “mean TGFb1 mRNA level after intradermal treatment, in words” value (“mean TGFb1 mRNA level” for short) is recorded as “lower”. In assay [3], the “scar tissues of treated wound, in words” value is “less”; the “fibrosis of treated wound, in words” value is recorded as “decreased”; the “neovascularization of treated wound, in words” value is “decreased; also recorded: much less”. Also, in assay [4], the “Fibroplasia; dermis, Average Scores” value was “(2.33)” and the “Neovascularization; dermis, Average Scores” value (from here on “Neovascularization; dermis”) is reported as “(1.67)”. In assay [4] (setting [5]), the “dermal fibroplasia / fibrosis at treated wound, in words” value is on record as “reduced” and the “neovascularization at treated wound, in words” value is given as “noticeably reduced”.
Take `CNC(=O)c1cc(Oc2ccc(NC(=O)Nc3ccc(Cl)c(C(F)(F)F)c3)cc2)ccn1` [sorafenib]: in the assay on TGF-β1 mRNA [1], the “TGF-β1 mRNA expression level” value is on record as “most effective”. For the same compound, in the assay on TGF-β1 mRNA [2], the “Rabbit TGFB1 mRNA Expression Fold by Treatment Relative to Untreated Wounded (mean ± SD)” value came to 0.87 ± 0.13 Fold and the “mean TGFb1 mRNA level” value is reported as “lower”. The “neovascularization of treated wound, in words” value in assay [3] is recorded as “slightly increased”. Besides, in assay [4], the “Fibroplasia; dermis, Average Scores” value is recorded as “(3.00)” and the “Neovascularization; dermis” value is recorded as “(2.33)”.
Regarding `CCN(CC)CCNC(=O)c1c(C)[nH]c(/C=C2\C(=O)Nc3ccc(F)cc32)c1C` [sunitinib], the “Rabbit TGFB1 mRNA Expression Fold by Treatment Relative to Untreated Wounded (mean ± SD)” value in the assay with TGF-β1 mRNA [2] was 0.76 ± 0.23 Fold. Further, in assay [4], the “Fibroplasia; dermis, Average Scores” value was “(2.67)” and the “Neovascularization; dermis” value is given as “(2.33)”.
Regarding `COc1cc2nccc(Oc3ccc(NC(=O)NC4CC4)c(Cl)c3)c2cc1C(N)=O` [lenvatinib], in the assay with TGF-β1 mRNA [2], the “Rabbit TGFB1 mRNA Expression Fold by Treatment Relative to Untreated Wounded (mean ± SD)” value was determined as 0.66 ± 0.25 Fold and the “mean TGFb1 mRNA level” value was “lower”. Also, in assay [3], the “re-epithelialization of treated wound, in words” value is given as “similar”; the “fibrosis of treated wound, in words” value was “similar”; the “neovascularization of treated wound, in words” value is reported as “similar”. For the same compound, in assay [4], the “Fibroplasia; dermis, Average Scores” value is on record as “(3.00)” and the “Neovascularization; dermis” value is given as “(2.33)”.
Take `COC(=O)N(C)c1c(N)nc(-c2nn(Cc3ccccc3F)c3ncccc23)nc1N` [riociguat]: the “TGF-β1 mRNA expression level” value with TGF-β1 mRNA [1] is listed as “most effective”. Also, in the assay with TGF-β1 mRNA [2], the “Rabbit TGFB1 mRNA Expression Fold by Treatment Relative to Untreated Wounded (mean ± SD)” value is 1.14 ± 0.14 Fold. In assay [3], the “fibrosis of treated wound, in words” value was “slightly decreased” and the “neovascularization of treated wound, in words” value is “slightly decreased”. Besides, in assay [4], the “Fibroplasia; dermis, Average Scores” value was “(2.67)” and the “Neovascularization; dermis” value was “(2.67)”.
As to `CNC(=O)c1ccccc1Sc1ccc2c(/C=C/c3ccccn3)n[nH]c2c1` [axitinib], the “Rabbit TGFB1 mRNA Expression Fold by Treatment Relative to Untreated Wounded (mean ± SD)” value in the assay with TGF-β1 mRNA [2] came to 0.87 ± 0.28 Fold. In assay [4], the “Fibroplasia; dermis, Average Scores” value is on record as “(2.33)” and the “Neovascularization; dermis” value is recorded as “(1.67)”.
